Key:
[1] = test system: patient-derived Meso84 cell line (sarcomatoid MPM); experiment: MTT cytotoxicity assay, 72 h, Meso84; format: cell-based, human; settings: exposure time 72 h
Description: (§1) Human malignant mesothelioma cancer cell lines JU77 and LO68 were obtained from Cell Bank Australia (Children's Medical Research Institute, Westmead, Australia). Mouse malignant mesothelioma cancer cell line AB12, human nonmalignant mesothelioma cancer cell line Met5A (mesothelial cells), mouse macrophage cell line J774 and human monocytic cell line THP-1 were obtained from American Type Culture Collection (ATCC) (Rockville, MD, USA). Human malignant mesothelioma cell lines VMC23 (epithelial), Meso82 (sarcomatous), Meso92 (biphasic), were kindly provided by Prof. Walter Berger (Medical University of Vienna). All cells except for J774 were cultured in RPMI and J774 cells were cultured in DMEM. Both types of media were supplemented with 10% FBS and 1% penicillin-streptomycin (10,000 U/mL). Cells were grown in tissue culture flasks (75 cm2 and 25 cm2, SPL Life Sciences Co., Ltd., Korea). All cell lines were grown at 37 °C in a humidified atmosphere of 95% air and 5% CO 2 and passaged when they reached 80–90% confluency. All Au stock solutions were prepared in 1% DMSO in the respected medium, ensuring that cell viability was not inhibited.
(§2) The cytotoxicity of compounds was determined using an MTT colorimetric test. The cells were harvested from culture flasks by trypsinization and seeded into Cellstar 96 -well microculture plates (Greiner Bio -One) at the seeding density of 6000 cells per well (6 × 10^4 cells/mL). After
(§3) the cells were allowed to resume exponential growth for 16 h, they were exposed to drugs at
(§4) different concentrations in media for 72 h. The drugs were diluted in a complete medium at the desired concentration added to each well (100 μL) and serially diluted in other wells. After exposure for 72 h, the media was replaced with MTT in media (5 mg/mL, 100 μL/well) and
(§5) incubated for an additional 50 min. Subsequently, the medium was aspirated, and the purple formazan crystals formed in viable cells were dissolved in DMSO (100 μL/well). Optical densities were measured at 570 nm using a BioTek Synergy H1 microplate and MultiskanTM SkyHigh plate readers. The quantity of viable cells was expressed in terms of treated/control (T/C) values in comparison to untreated control cells, and 50% inhibitory concentrations (IC 50) were calculated from concentration-effect curves by interpolation. An evaluation was based on means from at least three independent experiments, each comprising three replicat es per

[2] = test system: murine malignant mesothelioma cell line AB12; experiment: MTT cytotoxicity assay, 72 h, AB12; format: cell-based, mouse; settings: exposure time 72 h
Description: as §1, §2, §3, §4, §5

[3] = test system: human nonmalignant mesothelioma cell line Met5A; experiment: MTT cytotoxicity assay, 72 h, Met5A; format: cell-based; settings: exposure time 72 h
Description: Cell lines and culture conditions
(§6) Mouse malignant mesothelioma cancer cell line AB12, human nonmalignant mesothelioma cancer cell line Met5A (mesothelial cells), mouse macrophage cell line J774 and human monocytic cell line THP-1 were obtained from American Type Culture Collection (ATCC) (Rockville, MD, USA). Human malignant mesothelioma cell lines VMC23 (epithelial), Meso82 (sarcomatous), Meso92 (biphasic), were kindly provided by Prof. Walter Berger (Medical University of Vienna). All cells except for J774 were cultured in RPMI and J774 cells were cultured in DMEM. Both types of media were supplemented with 10% FBS and 1% penicillin-streptomycin (10,000 U/mL). Cells were grown in tissue culture flasks (75 cm2 and 25 cm2, SPL Life Sciences Co., Ltd., Korea). All cell lines were grown at 37 °C in a humidified atmosphere of 95% air and 5% CO 2 and passaged when they reached 80–90% confluency. All Au stock solutions were prepared in 1% DMSO in the respected medium, ensuring that cell viability was not inhibited. The Au concentration in the stock solutions was confirmed through inductively coupled plasma optical emission spectrometry. The stock solution of pemetrexed (10 mM) was prepared in Milli -Q water.
Inhibition of c ell viability assay
as §2, §3, §4, §5

[4] = test system: AB12 cells phagocytosed by J774 macrophages; experiment: Phagocytosis assay, flow cytometry; format: cell-based, mouse; settings: AB12 treated 100 min at 5 × IC50 (72 h), 16 h with J774 macrophages
Experimental: page 21: incubated for an additional 50 min. Subsequently, the medium was aspirated, and the purple formazan crystals formed in viable cells were dissolved in DMSO (100 μL/well). Optical densities were measured at 570 nm using a BioTek Synergy H1 microplate and MultiskanTM SkyHigh plate readers. The quantity of viable cells was expressed in terms of treated/control (T/C) values in comparison to untreated control cells, and 50% inhibitory concentrations (IC 50) were calculated from concentration-effect curves by interpolation. An evaluation was based on means from at least three independent experiments, each comprising three […] concentration level. For macrophage analyses, the acute monocytic leukemia -derived THP-1 cell line (ATCC) was used as a model. 1 × 104 THP-1 cells were seeded per well in 96-well plates in RPMI-1640 with 10% FCS and treated for 24 h with 75 nM phorbol 12-myristate 13-acetate (PMA, Sigma- Aldrich) to induce M0 macrophage differentiation. After the differentiation period, PMA was replaced by fresh culture medium to recover for 2h. Afterwards increasing concentrations of 1G, 5A, 5B and 5G were added for a 72-h continuous drug exposure assay. In parallel, the […] were allowed to attach for 24 h. Gold compounds were added to the cells as described for the THP-1 model above. After the incubation period of 72 h, cell viability was determined by an MTT-based assay (EU4U, Biomedica) following the instructions of the manufacturer. DMSO had not impact on the cell viability at the concentrations used. Flow cytometry experiments Phagocytosis assay […] with RPMI, centrifuged (300 × g, 5 min) and labelled with CellTracker Red CMTPX Dye (0.72 μM for 5 × 10^5 cells) at 37°C for 30 minutes in 1 ml of serum -free RPMI. Following S21 page 22: centrifugation of the cells (300 × g, 5 min), 5 ml of fresh RPMI was introduced, and the cells were seeded at a density of 5 x 10^5 cells per well into Cellstar 6-well plates (Greiner Bio-One) (1 ml per well). J774 macrophages (70-80% confluence in a T75 flask) were detached by scraping, centrifuged (300 × g, 5 min). The medium was substituted with 1 ml of DMEM containing CellTracker Green CMFDA (1 μM) and the J774 macrophages were stained at 37°C for 30 minutes. Following centrifugation of the J774 macrophages (300 × g, 5 min), 5 ml of fresh DMEM was introduced, and the macrophages were seeded into a 100 cm2 petri dish (SPL Life Sciences, Korea). After 24 h, the media in AB12 cells was replaced with 1 ml of fresh […] for 100 minutes. After removing the drug-containing media, the cells were trypsinized (0.5 ml), neutralized with 1 ml of RPMI, centrifuged (300 × g, 5 min) and counted. From each sample, […] cells into 6-well plates. AB12 cells and J774 macrophages were co-incubated for 16 h at 37°C and 5% CO2, detached by scraping, centrifuged (300 × g, 5 min), and the pellets were resuspended in PBS for immediate analysis using a CytoFLEX Flow Cytometer (Beckman Coulter, USA). The percentage of phagocytosis was determined by calculating the number of double-positive macrophages (Q2) over the total number of macrophages (Q2 + Q3). […] Annexin V/PI assay AB12 cells were seeded into Cellstar 6-well plates (Greiner Bio-One) at a density of 5 × 10^5 cells/well (1 ml per well). […] The medium was removed and cells were washed with PBS (2 × 1 mL). Afterwards the cells were […] S22

[5] = test system: patient-derived VMC23 cell line (epithelioid MPM); experiment: MTT cytotoxicity assay, 72 h, VMC23; format: cell-based, human; settings: exposure time 72 h
Description: as §1, §2, §3, §4, §5

[6] = test system: human malignant mesothelioma cell line LO68; experiment: MTT cytotoxicity assay, 72 h, LO68; format: cell-based; settings: exposure time 72 h
Description: as §1, §2, §3, §4, §5

[7] = test system: human malignant mesothelioma cell line JU77; experiment: MTT cytotoxicity assay, 72 h, JU77; format: cell-based; settings: exposure time 72 h
Description: as §1, §2, §3, §4, §5

[8] = test system: patient-derived Meso92 cell line (biphasic MPM); experiment: MTT cytotoxicity assay, 72 h, Meso92; format: cell-based, human; settings: exposure time 72 h
Description: Cell lines and culture conditions
as §6
Inhibition of c ell viability assay
as §2, §3, §4, §5

F[P-](F)(F)(F)(F)F.c1cc[c]2c(c1)Nc1cccc[n+]1[Au-]21[S]C(=[N+]2CCCCCC2)[S]1 (stereo not shown) [5G]
IC50 [1]: 300 ± 70 nM | IC50 [2]: 330 ± 90 nM | IC50 [3]: 250 ± 50 nM | phagocytosis / ICD response (in words) [4]: substantial phagocytosis | IC50 [5]: 730 ± 160 nM | IC50 [6]: 430 ± 50 nM | IC50 [7]: 220 ± 40 nM | IC50 [8]: 350 ± 40 nM

Nc1nc2[nH]cc(CCc3ccc(C(=O)N[C@@H](CCC(=O)O)C(=O)O)cc3)c2c(=O)[nH]1 [Pemetrexed, pemetrexed, reference compound]
IC50 ([1]; Homo sapiens): 27 ± 2 nM | IC50 ([2]; Mus musculus): 23 ± 7 nM | IC50 ([3]; Homo sapiens, MeT-5A): 300 ± 100 nM | phagocytosis / ICD response (in words) [4]: failed to initiate any ICD response | IC50 ([5]; Homo sapiens): 170 ± 40 nM | IC50 ([6]; Homo sapiens): 94 ± 28 nM | IC50 ([7]; Homo sapiens): 73 ± 14 nM | IC50 ([8]; Homo sapiens): 140 ± 40 nM

Source: PMC11887451, “Leveraging Immunogenic Cell Death to Enhance the Immune Response against Malignant Pleural Mesothelioma Tumors” (Journal of the American Chemical Society, 2025)
